Results from patent publication US20260102340A1, “Therapeutic Formulation” (1000739373 Ontario Ltd., priority 2022, published 2026).

Test: Visual solubility of formulations packaged in glass bottles
Assay type: physicochemical
Conditions: 100 μg/50 μl in 12% w/w ethanol and HFA 134a, T=5° C. and T=20° C.

- Visual solubility in glass bottles: confirmed visually
Compound: CCCC1O[C@@H]2C[C@H]3[C@@H]4CCC5=CC(=O)C=C[C@]5(C)[C@H]4[C@@H](O)C[C@]3(C)[C@]2(C(=O)CO)O1 (stereo partly shown) [Budesonide]
